Measurements reported in ChEMBL document CHEMBL4316588, “Design, Synthesis, and Biological Evaluation of Novel DNA Gyrase-Inhibiting Spiropyrimidinetriones as Potent Antibiotics for Treatment of Infections Caused by Multidrug-Resistant Gram-Positive Bacteria” (J Med Chem, 2019).
Values after ≈ are worked out from the molar mass of the structure shown. Active and inactive are the calls of the source. No cut-off for these calls is given here.

How the values were obtained:
Assay type in all cases: functional
Staphylococcus aureus [1] = assay: Antibacterial activity against methicillin-resistant Staphylococcus aureus after 18 to 20 hrs by CLSI-protocol based broth microdilution method
Streptococcus pyogenes = assay: Antibacterial activity against Streptococcus pyogenes after 18 to 20 hrs by CLSI-protocol based broth microdilution method
Streptococcus pneumoniae = assay: Antibacterial activity against penicillin-resistant Streptococcus pneumoniae after 18 to 20 hrs by CLSI-protocol based broth microdilution method
Staphylococcus aureus [2] = assay: Antibacterial activity against methicillin-sensitive Staphylococcus aureus after 18 to 20 hrs by CLSI-protocol based broth microdilution method
[3] = test system: Staphylococcus epidermidis; assay: Antibacterial activity against methicillin-resistant Staphylococcus epidermidis after 18 to 20 hrs by CLSI-protocol based broth microdilution method
[4] = test system: Staphylococcus epidermidis; assay: Antibacterial activity against methicillin-sensitive Staphylococcus epidermidis after 18 to 20 hrs by CLSI-protocol based broth microdilution method
[5] = Streptococcus pyogenes, read-out: MIC
[6] = Staphylococcus aureus, read-out: MIC

Compound: C[C@@H]1CN2c3c(cc4c(N5C[C@H](CO)SC5=O)noc4c3F)CC3(C(=O)NC(=O)NC3=O)[C@H]2[C@H](C)O1
- MIC (Staphylococcus aureus [1]): 0.5 to 4 µg/mL (≈ 0.962 to 7.7 µM)
- MIC (Streptococcus pyogenes; [5]): 0.125 to 0.5 µg/mL (≈ 0.241 to 0.962 µM)
- MIC (Streptococcus pneumoniae): 0.125 to 0.25 µg/mL (≈ 0.241 to 0.481 µM)
- MIC (Staphylococcus aureus [2]; [6]): 1 µg/mL (≈ 1.92 µM)
- MIC [3]: 0.03 to 0.125 µg/mL (≈ 0.0577 to 0.241 µM)
- MIC [4]: 0.06 to 0.25 µg/mL (≈ 0.115 to 0.481 µM)

Compound: C[C@@H]1CN2c3c(cc4c(N5C(=O)SC[C@@H]5Cc5ccccc5)noc4c3F)CC3(C(=O)NC(=O)NC3=O)[C@H]2[C@H](C)O1
- MIC (Staphylococcus aureus [1]): 8 to 16 µg/mL (≈ 13.8 to 27.6 µM)
- MIC (Streptococcus pyogenes; [5]): 4 to 8 µg/mL (≈ 6.9 to 13.8 µM)
- MIC (Streptococcus pneumoniae): 4 to 8 µg/mL (≈ 6.9 to 13.8 µM)
- MIC (Staphylococcus aureus [2]; [6]): 2 to 8 µg/mL (≈ 3.45 to 13.8 µM)
- MIC [3]: 1 to 4 µg/mL (≈ 1.73 to 6.9 µM)
- MIC [4]: 1 to 4 µg/mL (≈ 1.73 to 6.9 µM)

Compound: C[C@@H]1CN2c3c(cc4c(N5C(=O)OCC5(C)C)noc4c3F)CC3(C(=O)NC(=O)NC3=O)[C@H]2[C@H](C)O1 (racemic)
- MIC (Staphylococcus aureus [1]): 16 µg/mL (≈ 31.9 µM)
- MIC (Streptococcus pyogenes; [5]): 16 µg/mL (≈ 31.9 µM)
- MIC (Streptococcus pneumoniae): 16 µg/mL (≈ 31.9 µM)
- MIC (Staphylococcus aureus [2]; [6]): 16 µg/mL (≈ 31.9 µM)
- MIC [3]: 16 µg/mL (≈ 31.9 µM)
- MIC [4]: 16 µg/mL (≈ 31.9 µM)

Compound: C[C@@H]1CN2c3c(cc4c(N5CC6(CCCC6)OC5=O)noc4c3F)CC3(C(=O)NC(=O)NC3=O)[C@H]2[C@H](C)O1
- MIC (Staphylococcus aureus [1]): 0.06 to 1 µg/mL (≈ 0.114 to 1.9 µM)
- MIC (Streptococcus pyogenes; [5]): 0.25 to 0.5 µg/mL (≈ 0.474 to 0.948 µM)
- MIC (Streptococcus pneumoniae): 0.25 to 1 µg/mL (≈ 0.474 to 1.9 µM)
- MIC (Staphylococcus aureus [2]; [6]): 0.125 to 0.25 µg/mL (≈ 0.237 to 0.474 µM)
- MIC [3]: 0.03 to 0.25 µg/mL (≈ 0.0569 to 0.474 µM)
- MIC [4]: 0.06 to 0.25 µg/mL (≈ 0.114 to 0.474 µM)

Compound: CC[C@@H]1CN(c2noc3c(F)c4c(cc23)CC2(C(=O)NC(=O)NC2=O)[C@H]2[C@H](C)O[C@H](C)CN42)C(=O)S1
- MIC (Streptococcus pyogenes; [5]): < 0.03 µg/mL
- MIC [3]: < 0.03 µg/mL
- MIC [4]: < 0.03 µg/mL

Compound: C[C@@H]1CN2c3c(cc4c(N5C(=O)S[C@@H]6CCCC[C@@H]65)noc4c3F)CC3(C(=O)NC(=O)NC3=O)[C@H]2[C@H](C)O1
- MIC (Staphylococcus aureus [1]): 0.5 to 2 µg/mL (≈ 0.92 to 3.68 µM)
- MIC (Streptococcus pneumoniae): < 0.03 µg/mL
- MIC (Staphylococcus aureus [2]; [6]): 0.5 to 1 µg/mL (≈ 0.92 to 1.84 µM)
- MIC [3]: 0.125 to 0.5 µg/mL (≈ 0.23 to 0.92 µM)
- MIC [4]: 0.25 to 0.5 µg/mL (≈ 0.46 to 0.92 µM)

Compound: C[C@@H]1CN2c3c(cc4c(N5C[C@H](c6ccccc6)SC5=O)noc4c3F)CC3(C(=O)NC(=O)NC3=O)[C@H]2[C@H](C)O1
- MIC (Staphylococcus aureus [1]): 0.125 to 2 µg/mL (≈ 0.221 to 3.54 µM)
- MIC (Streptococcus pyogenes; [5]): 4 µg/mL (≈ 7.07 µM)
- MIC (Streptococcus pneumoniae): 1 to 2 µg/mL (≈ 1.77 to 3.54 µM)
- MIC (Staphylococcus aureus [2]; [6]): 0.5 to 1 µg/mL (≈ 0.884 to 1.77 µM)
- MIC [3]: 0.125 to 0.5 µg/mL (≈ 0.221 to 0.884 µM)
- MIC [4]: 0.5 to 2 µg/mL (≈ 0.884 to 3.54 µM)

Compound: Cc1ncnc2c(F)c3c(cc12)CC1(C(=O)NC(=O)NC1=O)[C@H]1[C@H](C)O[C@H](C)CN31 (racemic)
- MIC (Staphylococcus aureus [1]): inactive
- MIC (Streptococcus pyogenes): inactive
- MIC (Streptococcus pneumoniae): inactive
- MIC (Staphylococcus aureus [2]): inactive
- MIC [3]: inactive
- MIC [4]: inactive

Compound: C[C@@H]1CN2c3c(cc4c(N5CC6(CC6)OC5=O)noc4c3F)CC3(C(=O)NC(=O)NC3=O)[C@H]2[C@H](C)O1 (racemic)
- MIC (Staphylococcus aureus [1]): 0.03 to 0.125 µg/mL (≈ 0.0601 to 0.25 µM)
- MIC (Streptococcus pyogenes; [5]): ≤ 0.03 µg/mL
- MIC (Streptococcus pneumoniae): ≤ 0.03 µg/mL
- MIC (Staphylococcus aureus [2]): <0.03 µg/mL
- MIC [3]: ≤ 0.03 µg/mL
- MIC [4]: ≤ 0.03 µg/mL

Compound: C[C@@H]1CN2c3c(cc4c(-n5cncn5)ncnc4c3F)CC3(C(=O)NC(=O)NC3=O)[C@H]2[C@H](C)O1 (racemic)
- MIC (Staphylococcus aureus [1]): inactive
- MIC (Streptococcus pyogenes): inactive
- MIC (Streptococcus pneumoniae): inactive
- MIC (Staphylococcus aureus [2]): inactive
- MIC [3]: inactive
- MIC [4]: inactive

Compound: C[C@@H]1CN2c3c(cc4c(N5C(=O)OC[C@@H]5C)noc4c3C#N)CC3(C(=O)NC(=O)NC3=O)[C@H]2[C@H](C)O1
- MIC (Staphylococcus aureus [1]): 1 to 32 µg/mL (≈ 2.02 to 64.7 µM)
- MIC (Streptococcus pyogenes; [5]): 4 to 8 µg/mL (≈ 8.09 to 16.2 µM)
- MIC (Streptococcus pneumoniae): 2 to 8 µg/mL (≈ 4.04 to 16.2 µM)
- MIC (Staphylococcus aureus [2]; [6]): 4 to 8 µg/mL (≈ 8.09 to 16.2 µM)
- MIC [3]: 1 to 2 µg/mL (≈ 2.02 to 4.04 µM)
- MIC [4]: 0.5 to 2 µg/mL (≈ 1.01 to 4.04 µM)

Compound: C[C@@H]1CN2c3c(cc4c(N5CCOCC5)ncnc4c3F)CC3(C(=O)NC(=O)NC3=O)[C@H]2[C@H](C)O1 (racemic)
- MIC (Staphylococcus aureus [1]): inactive
- MIC (Streptococcus pyogenes): inactive
- MIC (Streptococcus pneumoniae): inactive
- MIC (Staphylococcus aureus [2]): inactive
- MIC [3]: inactive
- MIC [4]: inactive

Compound: C[C@@H]1CN2c3c(cc4c(N5C[C@H](CS(C)(=O)=O)SC5=O)noc4c3F)CC3(C(=O)NC(=O)NC3=O)[C@H]2[C@H](C)O1
- MIC (Staphylococcus aureus [1]): 1 to 8 µg/mL (≈ 1.72 to 13.8 µM)
- MIC (Streptococcus pyogenes; [5]): 0.5 to 1 µg/mL (≈ 0.86 to 1.72 µM)
- MIC (Streptococcus pneumoniae): 0.5 to 4 µg/mL (≈ 0.86 to 6.88 µM)
- MIC (Staphylococcus aureus [2]; [6]): 2 to 4 µg/mL (≈ 3.44 to 6.88 µM)
- MIC [3]: 0.25 to 1 µg/mL (≈ 0.43 to 1.72 µM)
- MIC [4]: 0.25 to 1 µg/mL (≈ 0.43 to 1.72 µM)

Compound: C[C@H]1COc2c(N3CCN(C)CC3)c(F)cc3c(=O)c(C(=O)O)cn1c23.C[C@H]1COc2c(N3CCN(C)CC3)c(F)cc3c(=O)c(C(=O)O)cn1c23.O [LEVOFLOXACIN]
- MIC (Staphylococcus aureus [1]): 16 to 64 µg/mL
- MIC (Streptococcus pyogenes; [5]): 0.5 to 1 µg/mL
- MIC (Staphylococcus aureus [2]; [6]): 4 to 64 µg/mL
- MIC [3]: 4 to 64 µg/mL
- MIC [4]: 0.5 to 4 µg/mL

Compound: C[C@@H]1CN2c3c(cc4c(N5C(=O)SC[C@H]5C)noc4c3F)CC3(C(=O)NC(=O)NC3=O)[C@H]2[C@H](C)O1
- MIC (Staphylococcus aureus [1]): 0.03 to 0.5 µg/mL (≈ 0.0596 to 0.993 µM)
- MIC (Streptococcus pyogenes; [5]): 0.125 to 0.25 µg/mL (≈ 0.248 to 0.497 µM)
- MIC (Streptococcus pneumoniae): 0.25 to 1 µg/mL (≈ 0.497 to 1.99 µM)
- MIC (Staphylococcus aureus [2]; [6]): 0.25 to 0.5 µg/mL (≈ 0.497 to 0.993 µM)
- MIC [3]: 0.03 to 0.125 µg/mL (≈ 0.0596 to 0.248 µM)
- MIC [4]: 0.03 to 0.125 µg/mL (≈ 0.0596 to 0.248 µM)

Compound: C[C@@H]1CN2c3c(cc4c(N5C(=O)OC[C@@H]5C)noc4c3F)CC3(C(=O)NC(=S)NC3=O)[C@H]2[C@H](C)O1
- MIC (Staphylococcus aureus [1]): inactive
- MIC (Streptococcus pyogenes): inactive
- MIC (Streptococcus pneumoniae): inactive
- MIC (Staphylococcus aureus [2]): inactive
- MIC [3]: inactive
- MIC [4]: inactive

Compound: C[C@@H]1CN2c3c(cc4c(N5C[C@H](CN=[N+]=[N-])SC5=O)noc4c3F)CC3(C(=O)NC(=O)NC3=O)[C@H]2[C@H](C)O1
- MIC (Staphylococcus aureus [1]): 0.25 to 0.5 µg/mL (≈ 0.459 to 0.918 µM)
- MIC (Streptococcus pyogenes; [5]): 0.125 to 1 µg/mL (≈ 0.23 to 1.84 µM)
- MIC (Streptococcus pneumoniae): 0.125 µg/mL (≈ 0.23 µM)
- MIC (Staphylococcus aureus [2]; [6]): 0.06 to 0.25 µg/mL (≈ 0.11 to 0.459 µM)
- MIC [3]: 0.03 to 0.125 µg/mL (≈ 0.0551 to 0.23 µM)
- MIC [4]: 0.03 to 0.25 µg/mL (≈ 0.0551 to 0.459 µM)
